Assay results as given in the supplement of paper PMC11061612.

Columns and labels:
Assay in all cases: combination Emax (second highest fraction inhibited in the dose matrix, 72 h); higher = more inhibition; extreme values may be limits of the assay
[1] = system: HCC2998 (Colorectal Carcinoma)
Summary of the method: (§1)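 Bliss excess equals the observed combination effect minus the expected value EA + EB − EA·EB, where EA and EB are the effects of each agent alone. Combination Emax is the second-highest inhibition within the matrix. Inhibition was scaled from CellTiter-Glo 2.0 luminescence, with 0 set by vehicle wells and 1 by blank wells, after 72 hours of two-drug dosing of cells plated in 1536-well plates.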

[2] = system: EJM (Plasma Cell Myeloma)
Summary of the method: as §1

[3] = system: EFO-21 (Ovarian Carcinoma)
Summary of the method: as §1

[4] = system: CADO-ES1 (Ewing's Sarcoma)
Summary of the method: as §1

[5] = system: SKN (Other Solid Carcinomas)
Summary of the method: as §1

[6] = system: HCC1500 (Breast Carcinoma)
Summary of the method: as §1

[7] = system: NCI-H650 (Lung Adenocarcinoma)
Summary of the method: as §1

[8] = system: MDA-MB-453 (Breast Carcinoma)
Summary of the method: as §1

[9] = system: SK-N-AS (Neuroblastoma)
Summary of the method: as §1

[10] = system: NCI-H1838 (Lung Adenocarcinoma)
Summary of the method: as §1

[11] = system: HCC1937 (Breast Carcinoma)
Summary of the method: as §1

[12] = system: ALL-SIL (T-Lymphoblastic Leukemia)
Summary of the method: as §1

[13] = system: ME-180 (Cervical Carcinoma)
Summary of the method: as §1

[14] = system: NCI-H2122 (Lung Adenocarcinoma)
Summary of the method: as §1

[15] = system: KOPN-8 (B-Lymphoblastic Leukemia)
Summary of the method: as §1

[16] = system: NCI-H1092 (Small Cell Lung Carcinoma)
Summary of the method: as §1

[17] = system: MOG-G-UVW (Low Grade Glioma)
Summary of the method: as §1

[18] = system: MOLT-4 (T-Lymphoblastic Leukemia)
Summary of the method: as §1

[19] = system: KGN (Other Solid Carcinomas)
Summary of the method: as §1

[20] = system: OACM5-1 (Esophageal Adenocarcinoma)
Summary of the method: as §1

SMILES | combination Emax [1] | combination Emax [2] | combination Emax [3] | combination Emax [4] | combination Emax [5] | combination Emax [6] | combination Emax [7] | combination Emax [8] | combination Emax [9] | combination Emax [10] | combination Emax [11] | combination Emax [12] | combination Emax [13] | combination Emax [14] | combination Emax [15] | combination Emax [16] | combination Emax [17] | combination Emax [18] | combination Emax [19] | combination Emax [20]
NC1(C(=O)N[C@@H](CCO)c2ccc(Cl)cc2)CCN(c2ncnc3[nH]ccc23)CC1 [Capivasertib] + C[C@@H]1COCCN1C2=NC(=NC(=C2)C3(CC3)[S@](=N)(=O)C)C4=C5C=CNC5=NC=C4 [AZD6738] (first compound max 10 µM, 7x7, partner max 10 µM) | 0.814 | 0.908 | 0.415 | 0.729 | 0.608 | 0.335 | 0.406 | 0.706 | 0.738 | 0.494 | 0.518 | 0.932 | 0.755 | 0.974 | 0.986 | 0.387 | 0.796 | 1 | 0.9 | 0.774
COc1nnc2ccc(N3CCC(c4ccc(OCCN5CCN(C)C(=O)[C@H]5C)cc4)CC3)nn12 [AZD5153] + Cn1cnc2c(F)c(Nc3ccc(Br)cc3Cl)c(C(=O)NOCCO)cc21 [Selumetinib] (first compound max 1 µM, 7x7, partner max 10 µM) | 0.95 | 0.619 | 0.439 | 0.444 | 0.65 | 0.387 | 0.656 | 0.614 | 0.663 | 0.394 | 0.396 | 0.778 | 0.592 | 1 | 1 | 0.192 | 0.658 | 0.162 | 0.729 | 0.663
CC1(C)CCC(CN2CCN(c3ccc(C(=O)NS(=O)(=O)c4ccc(NCC5CCOCC5)c([N+](=O)[O-])c4)c(Oc4cnc5[nH]ccc5c4)c3)CC2)=C(c2ccc(Cl)cc2)C1 [Venetoclax] + C[C@@H]1COCCN1C2=NC(=NC(=C2)C3(CC3)[S@](=N)(=O)C)C4=C5C=CNC5=NC=C4 [AZD6738] (first compound max 1 µM, 7x7, partner max 10 µM) | 0.779 | 0.869 | 0.444 | 0.952 | 0.491 | 0.855 | 0.276 | 0.761 | 0.896 | 0.6 | 0.587 | 1 | 0.571 | 0.947 | 1 | 0.458 | 0.852 | 1 | 0.751 | 0.678
COc1cccc(OCCCN)c1-c1cc(Nc2cnc(C#N)cn2)n[nH]1 [Prexasertib] + C=CCn1c(=O)c2cnc(Nc3ccc(N4CCN(C)CC4)cc3)nc2n1-c1cccc(C(C)(C)O)n1 [AZD1775] (first compound max 1 µM, partner max 1 µM) | 0.984 | 0.954 | 0.742 | 0.946 | 0.488 | 0.541 | 0.732 | 0.909 | 1 | 0.704 | 0.584 | 1 | 0.652 | 0.984 | 0.995 | 0.756 | 0.943 | 1 | 0.862 | 0.802
CC1(C)CCC(CN2CCN(c3ccc(C(=O)NS(=O)(=O)c4ccc(NCC5CCOCC5)c([N+](=O)[O-])c4)c(Oc4cnc5[nH]ccc5c4)c3)CC2)=C(c2ccc(Cl)cc2)C1 [Venetoclax] + CCN(CCO)CCCOc1ccc2c(Nc3cc(CC(=O)Nc4cccc(F)c4)[nH]n3)ncnc2c1 [AZD2811] (first compound max 1 µM, 7x7, partner max 1 µM) | 0.121 | 0.261 | 0.375 | 0.755 | 0.242 | 0.855 | 0.178 | 0.211 | 0.434 | 0.226 | 0.264 | 1 | 0.243 | 0.702 | 0.974 | 0.39 | 0.636 | 1 | 0.509 | 0.421
CC(=O)c1c(C)c2cnc(Nc3ccc(N4CCNCC4)cn3)nc2n(C2CCCC2)c1=O [Palbociclib] + Cn1cnc2c(F)c(Nc3ccc(Br)cc3Cl)c(C(=O)NOCCO)cc21 [Selumetinib] (first compound max 10 µM, 7x7, partner max 10 µM) | 0.781 | 0.182 | 0.245 | 0.265 | 0.349 | 0.193 | 0.36 | 0.241 | 0.577 | 0.321 | 0.214 | 0.38 | 0.297 | 0.954 | 0.801 | 0.11 | 0.523 | 0.766 | 0.529 | 0.477
Cn1cnc2c(F)c(Nc3ccc(Br)cc3Cl)c(C(=O)NOCCO)cc21 [Selumetinib] + C[C@@H]1COCCN1C2=NC(=NC(=C2)C3(CC3)[S@](=N)(=O)C)C4=C5C=CNC5=NC=C4 [AZD6738] (first compound max 10 µM, 7x7, partner max 10 µM) | 0.899 | 0.855 | 0.255 | 0.822 | 0.423 | 0.183 | 0.619 | 0.684 | 0.817 | 0.374 | 0.421 | 0.934 | 0.465 | 0.972 | 1 | 0.111 | 0.691 | 0.991 | 0.808 | 0.612
